According to PubChem BioAssay (NCI):
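Protocol summary: plate cells (96-well), add compound at 5 concentrations, incubate 48 h, interpolate endpoints linearly. Here, GI50 denotes the concentration required for 50% inhibition of growth. TGI: total growth inhibition.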

Experiments:
Experiment in all cases: NCI tumour cell line growth inhibition, 48 h
[1] = system: SF-539 CNS
[2] = system: LOX IMVI melanoma
[3] = system: SK-OV-3 ovarian
[4] = system: NCI-H226 lung
[5] = system: CCRF-CEM leukemia
[6] = system: NCI-H460 lung
[7] = system: HOP-92 NSCLC
[8] = system: DU-145 prostate
[9] = system: UACC-257 melanoma
[10] = system: HL-60(TB) leukemia
[11] = system: HCT-116 colon
[12] = system: HT29 colon
[13] = system: SW-620 colon
[14] = system: M14 melanoma
[15] = system: SN12C renal
[16] = system: NCI-H23 lung
[17] = system: U251 CNS
[18] = system: OVCAR-5 ovarian
[19] = system: RPMI-8226 leukemia
[20] = system: MALME-3M melanoma
[21] = system: SK-MEL-2 melanoma
[22] = system: KM12 colon
[23] = system: OVCAR-3 ovarian
[24] = system: COLO 205 colon
[25] = system: SK-MEL-5 melanoma
[26] = system: MOLT-4 leukemia
[27] = system: SNB-75 CNS
[28] = system: SK-MEL-28 melanoma
[29] = system: A498 renal
[30] = system: HOP-62 NSCLC
[31] = system: ACHN renal
[32] = system: UACC-62 melanoma
[33] = system: BT-549 breast
[34] = system: 786-0 renal
[35] = system: EKVX NSCLC
[36] = system: PC-3 prostate
[37] = system: HCT-15 colon
[38] = system: NCI-H522 lung
[39] = system: OVCAR-8 ovarian
[40] = system: HS 578T breast
[41] = system: SF-268 CNS
[42] = system: SF-295 CNS
[43] = system: IGROV1 ovarian
[44] = system: MDA-MB-435
[45] = system: MDA-MB-468 breast
[46] = system: CAKI-1 renal
[47] = system: HCC-2998 colon
[48] = system: K-562 leukemia
[49] = system: TK-10 renal
[50] = system: MCF7 breast
[51] = system: OVCAR-4 ovarian
[52] = system: A549 NSCLC
[53] = system: RXF 393 renal

Q: `C=C1CC[C@@H]2[C@]3(C)COC(c4cn[nH]c4-c4cccc(Cl)c4)O[C@@H]3CC[C@@]2(C)[C@@H]1C/C=C1/C(=O)OCC1O` (stereo partly specified) was tested. Which GI50 [1] did it give?
A: The GI50 was 1.77 µM.

Q: And the TGI [1]?
A: The TGI was 3.36 µM.

Q: What about the GI50 [2] of the same compound?
A: The GI50 was 1.44 µM.

Q: What about the TGI [2] of the same compound?
A: Its TGI is 2.83 µM.

Q: What about the GI50 [3] of the same compound?
A: Its GI50 is 16 µM.

Q: And the TGI [3]?
A: Its TGI is 35.1 µM.

Q: What about the GI50 [4] of the same compound?
A: The GI50 was 1.66 µM.

Q: What about the TGI [4] of the same compound?
A: Its TGI is 3.21 µM.

Q: What about the GI50 [5] of the same compound?
A: The GI50 was 2.7 µM.

Q: And the TGI [5]?
A: The TGI was 11.4 µM.

Q: What about the GI50 [6] of the same compound?
A: The GI50 was 8.87 µM.

Q: What about the TGI [6] of the same compound?
A: The TGI was 25.6 µM.

Q: And the GI50 [7]?
A: Its GI50 is 4.29 µM.

Q: What about the TGI [7] of the same compound?
A: The TGI was 22.3 µM.

Q: What about the GI50 [8] of the same compound?
A: The GI50 was 5.01 µM.

Q: And the TGI [8]?
A: The TGI was 19.5 µM.

Q: And the GI50 [9]?
A: Its GI50 is 11.2 µM.

Q: And the TGI [9]?
A: The TGI was 27 µM.

Q: And the GI50 [10]?
A: The GI50 was 2.91 µM.

Q: What about the TGI [10] of the same compound?
A: The TGI was 16.3 µM.

Q: What about the GI50 [11] of the same compound?
A: Its GI50 is 1.84 µM.

Q: And the TGI [11]?
A: Its TGI is 3.93 µM.

Q: What about the GI50 [12] of the same compound?
A: The GI50 was 2.7 µM.

Q: What about the TGI [12] of the same compound?
A: Its TGI is 6.8 µM.

Q: What about the GI50 [13] of the same compound?
A: Its GI50 is 2.35 µM.

Q: What about the TGI [13] of the same compound?
A: Its TGI is 5.96 µM.

Q: And the GI50 [14]?
A: The GI50 was 2.19 µM.

Q: And the TGI [14]?
A: The TGI was 5.88 µM.

Q: What about the GI50 [15] of the same compound?
A: The GI50 was 2.94 µM.

Q: And the TGI [15]?
A: The TGI was 10.5 µM.

Q: What about the GI50 [16] of the same compound?
A: The GI50 was 4.36 µM.

Q: What about the TGI [16] of the same compound?
A: The TGI was 15.9 µM.

Q: What about the GI50 [17] of the same compound?
A: Its GI50 is 2.15 µM.

Q: And the TGI [17]?
A: The TGI was 5.29 µM.

Q: And the GI50 [18]?
A: Its GI50 is 3.63 µM.

Q: And the TGI [18]?
A: The TGI was 14 µM.

Q: And the GI50 [19]?
A: Its GI50 is 2.25 µM.

Q: And the TGI [19]?
A: Its TGI is 7.02 µM.

Q: And the GI50 [20]?
A: Its GI50 is 1.84 µM.

Q: What about the TGI [20] of the same compound?
A: Its TGI is 4.26 µM.

Q: What about the GI50 [21] of the same compound?
A: Its GI50 is 2.71 µM.

Q: And the TGI [21]?
A: The TGI was 8.53 µM.

Q: What about the GI50 [22] of the same compound?
A: Its GI50 is 3.29 µM.

Q: And the TGI [22]?
A: Its TGI is 13.1 µM.

Q: What about the GI50 [23] of the same compound?
A: Its GI50 is 1.93 µM.

Q: And the TGI [23]?
A: Its TGI is 3.77 µM.

Q: What about the GI50 [24] of the same compound?
A: Its GI50 is 4.85 µM.

Q: What about the TGI [24] of the same compound?
A: The TGI was 19.5 µM.

Q: And the GI50 [25]?
A: Its GI50 is 2.27 µM.

Q: And the TGI [25]?
A: The TGI was 5.37 µM.

Q: And the GI50 [26]?
A: Its GI50 is 3.83 µM.

Q: And the TGI [26]?
A: Its TGI is 18.2 µM.

Q: What about the GI50 [27] of the same compound?
A: Its GI50 is 2.41 µM.

Q: What about the TGI [27] of the same compound?
A: The TGI was 12.3 µM.

Q: And the GI50 [28]?
A: The GI50 was 1.98 µM.

Q: What about the TGI [28] of the same compound?
A: The TGI was 4.05 µM.

Q: And the GI50 [29]?
A: The GI50 was 18.5 µM.

Q: And the TGI [29]?
A: The TGI was 32.6 µM.

Q: What about the GI50 [30] of the same compound?
A: The GI50 was 15.3 µM.

Q: What about the TGI [30] of the same compound?
A: Its TGI is 32 µM.

Q: And the GI50 [31]?
A: The GI50 was 2.47 µM.

Q: And the TGI [31]?
A: Its TGI is 6.95 µM.

Q: And the GI50 [32]?
A: The GI50 was 1.69 µM.

Q: And the TGI [32]?
A: The TGI was 3.62 µM.

Q: What about the GI50 [33] of the same compound?
A: Its GI50 is 2.36 µM.

Q: What about the TGI [33] of the same compound?
A: Its TGI is 6.03 µM.

Q: And the GI50 [34]?
A: Its GI50 is 3.36 µM.

Q: And the TGI [34]?
A: Its TGI is 11.7 µM.

Q: What about the GI50 [35] of the same compound?
A: Its GI50 is 3.68 µM.

Q: What about the TGI [35] of the same compound?
A: The TGI was 13.9 µM.

Q: What about the GI50 [36] of the same compound?
A: The GI50 was 4.08 µM.

Q: What about the TGI [36] of the same compound?
A: The TGI was 30.7 µM.

Q: And the GI50 [37]?
A: The GI50 was 1.79 µM.

Q: And the TGI [37]?
A: Its TGI is 3.81 µM.

Q: And the GI50 [38]?
A: Its GI50 is 1.75 µM.

Q: And the TGI [38]?
A: Its TGI is 3.59 µM.

Q: What about the GI50 [39] of the same compound?
A: Its GI50 is 2.39 µM.

Q: And the TGI [39]?
A: Its TGI is 7.7 µM.

Q: And the GI50 [40]?
A: The GI50 was 9.04 µM.

Q: And the TGI [40]?
A: The TGI was 62.7 µM.

Q: What about the GI50 [41] of the same compound?
A: Its GI50 is 17.3 µM.

Q: What about the TGI [41] of the same compound?
A: Its TGI is 41.4 µM.

Q: And the GI50 [42]?
A: Its GI50 is 4.27 µM.

Q: What about the TGI [42] of the same compound?
A: Its TGI is 16.1 µM.

Q: And the GI50 [43]?
A: The GI50 was 4.14 µM.

Q: And the TGI [43]?
A: Its TGI is 15.8 µM.

Q: What about the GI50 [44] of the same compound?
A: The GI50 was 2.47 µM.

Q: What about the TGI [44] of the same compound?
A: The TGI was 7.62 µM.

Q: What about the GI50 [45] of the same compound?
A: Its GI50 is 1.88 µM.

Q: What about the TGI [45] of the same compound?
A: Its TGI is 4.97 µM.

Q: And the GI50 [46]?
A: Its GI50 is 4 µM.

Q: And the TGI [46]?
A: Its TGI is 14.6 µM.

Q: What about the GI50 [47] of the same compound?
A: The GI50 was 3.49 µM.

Q: What about the TGI [47] of the same compound?
A: The TGI was 11.5 µM.

Q: And the GI50 [48]?
A: The GI50 was 2.41 µM.

Q: What about the TGI [48] of the same compound?
A: Its TGI is 10.5 µM.

Q: And the GI50 [49]?
A: The GI50 was 12.4 µM.

Q: What about the TGI [49] of the same compound?
A: Its TGI is 25.7 µM.

Q: And the GI50 [50]?
A: The GI50 was 2.06 µM.

Q: What about the TGI [50] of the same compound?
A: Its TGI is 9.16 µM.

Q: What about the GI50 [51] of the same compound?
A: The GI50 was 4.4 µM.

Q: What about the TGI [51] of the same compound?
A: The TGI was 45.7 µM.

Q: And the GI50 [52]?
A: Its GI50 is 9.73 µM.

Q: What about the TGI [52] of the same compound?
A: The TGI was 30.4 µM.

Q: What about the GI50 [53] of the same compound?
A: The GI50 was 1.73 µM.

Q: And the TGI [53]?
A: The TGI was 3.24 µM.
